From ChEMBL document CHEMBL1909511, “Inhalation by design: novel tertiary amine muscarinic M₃ receptor antagonists with slow off-rate binding kinetics for inhaled once-daily treatment of chronic obstructive pulmonary disease” (J Med Chem, 2011)

Tests used:
[1] = molecular target: T1, Muscarinic acetylcholine receptor M1 (Homo sapiens, UniProt P11229); test: Displacement of [3H]-NMS from human recombinant M1 receptor expressed in CHO cells after 24 hrs by filter binding assay; type: cell-based
T1 sequence (P11229 whole entry): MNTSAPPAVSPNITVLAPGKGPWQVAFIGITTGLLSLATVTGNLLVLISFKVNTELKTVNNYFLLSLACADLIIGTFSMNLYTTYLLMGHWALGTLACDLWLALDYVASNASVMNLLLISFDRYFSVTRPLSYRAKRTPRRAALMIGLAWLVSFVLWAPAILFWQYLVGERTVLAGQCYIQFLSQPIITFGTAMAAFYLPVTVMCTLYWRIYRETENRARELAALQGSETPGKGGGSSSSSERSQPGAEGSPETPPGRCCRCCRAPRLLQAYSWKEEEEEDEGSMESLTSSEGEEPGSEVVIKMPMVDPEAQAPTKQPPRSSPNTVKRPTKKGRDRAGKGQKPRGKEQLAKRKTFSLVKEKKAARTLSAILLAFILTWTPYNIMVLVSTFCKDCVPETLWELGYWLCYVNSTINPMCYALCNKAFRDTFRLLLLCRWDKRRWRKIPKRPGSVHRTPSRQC

[2] = molecular target: T2, Muscarinic acetylcholine receptor M1 (Homo sapiens) (UniProt P11229); test: Displacement of [3H]-NMS from human recombinant M1 receptor expressed in CHO cells assessed as dissociation half life at 100 fold human M1 receptor binding Ki concentration after 24 hrs by dilution-offset filter binding assay; type: cell-based
T2 sequence (whole entry): T1 sequence (P11229 whole entry)

[3] = molecular target: T3, Muscarinic acetylcholine receptor M2 (Homo sapiens) (UniProt P08172); test: Displacement of [3H]-NMS from human recombinant M2 receptor expressed in CHO cells assessed as dissociation half life at 100 fold human M2 receptor binding Ki concentration after 24 hrs by dilution-offset filter binding assay; type: cell-based
T3 sequence (whole entry): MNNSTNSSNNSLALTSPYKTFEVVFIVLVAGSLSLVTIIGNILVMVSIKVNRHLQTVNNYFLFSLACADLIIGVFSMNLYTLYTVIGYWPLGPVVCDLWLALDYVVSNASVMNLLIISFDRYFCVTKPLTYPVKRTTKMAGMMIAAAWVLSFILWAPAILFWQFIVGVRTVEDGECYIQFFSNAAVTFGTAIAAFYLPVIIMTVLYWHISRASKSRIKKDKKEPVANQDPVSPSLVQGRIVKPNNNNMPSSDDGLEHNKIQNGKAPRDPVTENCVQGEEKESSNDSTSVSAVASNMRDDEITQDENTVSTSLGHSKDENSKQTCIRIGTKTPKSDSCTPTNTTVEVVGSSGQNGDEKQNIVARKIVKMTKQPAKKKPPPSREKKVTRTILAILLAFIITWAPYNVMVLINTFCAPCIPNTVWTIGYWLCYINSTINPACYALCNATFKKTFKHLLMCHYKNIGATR

[4] = molecular target: T4, Muscarinic acetylcholine receptor M4 (Homo sapiens, UniProt P08173); test: Displacement of [3H]-NMS from human recombinant M4 receptor expressed in CHO cells after 24 hrs by filter binding assay; type: cell-based
T4 sequence (P08173 whole entry): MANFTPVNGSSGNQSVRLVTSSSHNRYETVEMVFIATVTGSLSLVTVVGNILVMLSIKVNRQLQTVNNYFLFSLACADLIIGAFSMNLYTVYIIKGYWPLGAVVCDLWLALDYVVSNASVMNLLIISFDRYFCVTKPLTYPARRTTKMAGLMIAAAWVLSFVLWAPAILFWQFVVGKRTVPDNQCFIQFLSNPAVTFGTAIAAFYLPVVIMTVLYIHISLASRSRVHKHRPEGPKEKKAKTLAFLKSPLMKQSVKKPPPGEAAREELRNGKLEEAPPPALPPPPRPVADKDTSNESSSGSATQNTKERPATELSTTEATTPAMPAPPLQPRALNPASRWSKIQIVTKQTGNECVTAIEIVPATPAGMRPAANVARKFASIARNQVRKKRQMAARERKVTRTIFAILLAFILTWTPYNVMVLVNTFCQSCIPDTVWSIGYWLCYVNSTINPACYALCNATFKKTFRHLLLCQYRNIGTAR

[5] = molecular target: T5, Muscarinic acetylcholine receptor M5 (Homo sapiens) (UniProt P08912); test: Displacement of [3H]-NMS from human recombinant M5 receptor expressed in CHO cells assessed as dissociation half life at 100 fold human M5 receptor binding Ki concentration after 24 hrs by dilution-offset filter binding assay; type: cell-based
T5 sequence (whole entry): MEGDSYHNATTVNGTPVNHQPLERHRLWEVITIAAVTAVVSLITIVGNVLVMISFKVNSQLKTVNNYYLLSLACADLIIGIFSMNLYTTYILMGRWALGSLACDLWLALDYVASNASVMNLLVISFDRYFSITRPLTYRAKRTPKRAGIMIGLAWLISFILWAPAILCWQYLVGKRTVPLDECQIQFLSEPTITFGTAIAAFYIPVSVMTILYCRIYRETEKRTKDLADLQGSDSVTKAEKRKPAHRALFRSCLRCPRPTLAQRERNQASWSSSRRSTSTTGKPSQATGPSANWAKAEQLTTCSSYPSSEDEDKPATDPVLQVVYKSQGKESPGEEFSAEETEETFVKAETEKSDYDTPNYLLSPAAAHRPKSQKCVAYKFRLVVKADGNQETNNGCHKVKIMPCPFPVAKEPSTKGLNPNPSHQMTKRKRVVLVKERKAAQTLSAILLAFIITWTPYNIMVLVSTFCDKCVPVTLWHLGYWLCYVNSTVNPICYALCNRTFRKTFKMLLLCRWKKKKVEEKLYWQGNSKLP

Canis familiaris = test: Bronchodilator activity in methacholine challenged Beagle dog assessed as intrinsic duration of action at 3 ug intratracheally administered as single dose in micelle solution; type: functional, Canis lupus familiaris
MDR1 = test: Apparent permeability across basal to apical side in dog MDCK expressing MDR1; type: ADME, cell-based, Canis lupus familiaris
[6] = Plasma protein binding in iv dosed rat; type: ADME, organism-based; details: read-out: PPB (converted)

Ki [1]: 0.115 nM
T1/2 [2]: 14 h
T1/2 [3]: 4.38 h
Ki [4]: 0.115 nM
T1/2 [5]: > 16.7 h
Papp B→A (MDR1): 64 ×10⁻⁶ cm/s
fraction unbound [6]: 0.065
Compound: CC(C)(CCC(C(N)=O)(c1ccccc1)c1ccccc1)N1CC(Oc2cccc(O)c2)C1 [PF-03635659]
Time (Canis familiaris): >24 h
